Data taken from US9108958B2, “Selective CCR2 antagonists” (Boehringer Ingelheim International GmbH, priority 2011, dated 2015).

Key:
CCR2 = target: T1, CCR2 (Homo sapiens, UniProt P41597); assay: CCR2 receptor membrane binding assay ([125I]MCP-1, THP-1 cell membranes, SPA beads); settings: THP-1 membranes, [125I]MCP-1, bound radioactivity after 8 h; read-out: hKi [nM](CCR2)
T1 construct: Membranes were prepared from THP-1 cells; endogenous in cells; host or cells: THP-1 (human acute monocytic leukaemia cells), membrane preparation
T1 sequence (P41597 1-360 isoform P41597-2): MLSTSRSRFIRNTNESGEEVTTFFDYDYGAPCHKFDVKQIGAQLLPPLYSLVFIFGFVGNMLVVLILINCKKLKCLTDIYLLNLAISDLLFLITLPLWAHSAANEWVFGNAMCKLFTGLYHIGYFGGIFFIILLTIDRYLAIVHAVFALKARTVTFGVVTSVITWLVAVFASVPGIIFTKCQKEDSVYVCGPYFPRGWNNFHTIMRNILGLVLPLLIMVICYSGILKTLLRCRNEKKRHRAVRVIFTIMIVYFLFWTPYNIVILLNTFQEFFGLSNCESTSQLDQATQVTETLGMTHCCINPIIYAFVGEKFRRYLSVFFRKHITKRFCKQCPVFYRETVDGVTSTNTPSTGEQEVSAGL
Description: The above exemplary substances have been tested for binding to CCR2 using a binding assay as outlined herein below:
THP-1 cells (human acute monocytic leukaemia cells) were cultured under standardized conditions at 37° C. and 5% CO2 in a humidified incubator. THP-1 cells were cultivated in RPMI 1640 medium (Gibco 21875) containing 1% MEM-NEAA (Gibso 11140) 2 mM L-glutamine, 1.5 g/L sodium bicarbonate, 4.5 g/L glucose, 10 mM HEPES and 1.0 mM sodium pyruvate, 90%; 10% fetal calf serum (FCS Gibco 10500-064).
Membranes were prepared from THP-1 cells. THP-1 cells were centrifuged at 300×g at 4° C. for 10 min. The cell pellet was resuspendet in Phosphate Buffer Saline (PBS, including 10 μM Pefabloc and a protease inhibitor mix ‘complete’, Boehringer Mannheim (1 tablet/50 ml)), to a concentration of […]. The membrane preparation was performed by disrupting the cells by nitrogen […] (at 50 bar, for 1 h) in a “Nitrogen Bombe” (Parr Instrument). Cell debris was removed by centrifugation (800×g at 4° C., 1 min) The supernatant was centrifuged at 80000×g, 4° C. for 30 min to sediment the cell membranes. Usually 50 mg of protein (Bradford assay) were yielded from 1×10E9 cells. The membranes were resuspendet in 25 mM HEPES, 25 mM MgCl2, 1 mM CaCl2, 10% Glycerine for storage in aliquots at −80° C. in 25 mM HEPES, 25 mM MgCl2, 1 mM CaCl2, 10% Glycerine and stored at −80° C.
(§1) Receptor Membrane Binding Assay:
Perkin Elmer NEX 332 Jod^125 MCP-1, Stock: 2200 Ci/mmol solved in 2000 μl assay buffer, stored at −20° C. THP-1 membrane were adjusted with 25 mM HEPES, pH 7.2; 5 mM MgCl2; 0.5 mM CaCl2; 0.2% BSA assay buffer to a concentration of 2.5 μg/15 μl. Amersham Biosciences PVT-WGA Beads (RPNQ0001) were adjusted with assay buffer to a concentration of 0.24 mg/30 μl. For preparation of the membrane-bead-suspension membranes and beads were incubated for 30 min at RT under rotation (60 rpm) with a ratio of 1:2. Test compounds dissolved in 100% DMSO to a concentration of 10 mM and are further diluted with 100% DMSO to 1 mM. All additional compound dilutions were obtained with assay buffer, final 1% DMSO. Compounds, membrane-bead-suspension and [^125I]MCP-1 (ca. 25000 cpm/10 μl) were incubated. Bound radioactivity was determined by scintillation counter after 8 h. Determination of affinity of test compounds (dissociation constant hKi) is calculated by iterative fitting of experimental data using the “easy sys” program, which is based on law of mass action (Schittkowski K. (1994), Numerische Mathematik, Vol. 68, 129-142).

human CCR5 = target: T2, human CCR5 (Homo sapiens, UniProt P51681); assay: CCR5 receptor membrane binding assay ([125I]RANTES, CHO (Gα16) human CCR5 cell membranes, SPA beads); settings: bound radioactivity after 6 h, read-out: hKi [nM] (CCR5)
T2 construct: expressed in transfected cells; host or cells: CHO cells co-expressing Gα16, under puromycin and zeocin selection; membrane preparation
T2 sequence (P51681 whole entry): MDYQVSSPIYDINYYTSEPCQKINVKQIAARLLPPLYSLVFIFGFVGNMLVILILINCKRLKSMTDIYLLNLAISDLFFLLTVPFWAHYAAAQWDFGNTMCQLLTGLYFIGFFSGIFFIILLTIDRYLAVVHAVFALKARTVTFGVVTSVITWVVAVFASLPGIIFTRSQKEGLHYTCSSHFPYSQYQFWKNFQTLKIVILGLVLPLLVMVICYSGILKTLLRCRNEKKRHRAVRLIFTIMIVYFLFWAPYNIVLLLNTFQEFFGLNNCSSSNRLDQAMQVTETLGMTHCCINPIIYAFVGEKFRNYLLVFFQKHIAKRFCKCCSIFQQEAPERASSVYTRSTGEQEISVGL
Description: The above exemplary substances have been tested for binding to CCR5 using a binding assay as outlined herein below:
CHO, (Gα16) human CCR5 cells were cultured under standardized conditions at 37° C. and 5% CO2 in a humidified incubator. CHO (Gα16) human CCR5 cells were cultivated in Ham's F12 (Invitrogen; #31765068) supplemented with 10 μg/ml Puromycin (Invitrogen; #A11139-03), 200 μg/ml Zeocin (Invitrogen; #45-0003) and 10% FCS (Gibco; #10500-064).
Membranes were prepared from CHO (Gα16) human CCR5 cells. Cells were cultured on […] plates (Nunc; #166508) 2-3 days before membrane preparation (usually 80-100 plates to obtain 80 mg protein).
Cells were scraped off the plates with a big scraper and washed with 2×5 ml ice cold Phosphate Buffer Saline (PBS; Invitrogen; #14040-174). Cell suspension was collected in a glass bottle (on ice). Cell suspension was harvested at 1400 rpm and 4° C. for 10 min and washed in PBS. Cell pellet was resuspended in 40 ml PBS with protease inhibitor mix ‘complete’ (Roche; #11873580001; 1 tablet/50 ml).
For gentle cell disruption the membrane preparation was performed by using a homogenizer (potter). Cells were homogenized for 5-10 min.
Membranes were centrifuged at 1000 rpm and 4° C. for 5 min Supernatant (=membrane) was harvested in a new falcon tube and remaining cell pellet homogenized again for 5-10 min with PBS with protease inhibitor mix and centrifuged. Collected supernatant was centrifuged at 40000 rpm and 4° C. for 30 min to sediment the cell membranes.
The membranes were resuspended in 25 mM HEPES, 25 mM MgCl2, 1 mM CaCl2, 10% Glycerine for storage in aliquots at −80° C. Membranes were diluted to a concentration of 5 mg/ml (Bradford Assay).
as §1
[^125I]RANTES, Stock: 1825 Ci/mmol, 25 μCi (Bio Trend #A3-AI-676) was solved in 1000 μl assay buffer (100 mM NaCl; 10 mM MgCl2; 50 mM Tris-HCl; 1 mM EDTA; 0.1% BSA, pH 7.6), stored at −20° C.
CHO (Gα16) human CCR5 membrane were solved on ice and adjusted with assay buffer to a concentration of 2.5 μg/15 μl.
Amersham Biosciences PVT-WGA Beads (GE Healthcare; #RPNQ0001) were adjusted with assay buffer to a concentration of 8 mg/ml. For preparation of the membrane-bead-suspension, membranes and beads were incubated for 30 min at RT under rotation with a ratio of 1:2.
Test compounds dissolved in 100% DMSO to a concentration of 10 mM and are further diluted with 100% DMSO to 1 mM. All additional compound dilutions were obtained with assay buffer, final 1% DMSO. 7 μl compound dilution, 45 μl membrane-bead-suspension and 10 μl [^125I]RANTES (ca. 20000 cpm/10 μl) were incubated at RT. Bound radioactivity was determined by scintillation counter after 6 h. Determination of affinity of test compounds (dissociation constant Ki) is calculated by iterative fitting of experimental data using the “easy sys” program, which is based on law of mass action (Schittkowski K. (1994), Numerische Mathematik, Vol. 68, 129-142).

Row | Ki (CCR2) [nM] | Ki (human CCR5) [nM] | Compound
1 | 17 | 3450 | Cc1c(C(=O)N2CCC(N[C@H]3CCOC[C@H]3F)CC2)nc(CF)nc1N1CCc2ccc(C(F)(F)F)cc2C1 (relative stereo) [Example 45]
2 | 34 | 3680 | Cc1c(C(=O)N2CCC(N[C@H]3CCOC[C@@H]3F)CC2)nc(CF)nc1N1CCc2ccc(C(F)(F)F)cc2C1 (relative stereo) [Example 46]
3 | 3 | 265 | CO[C@H]1COCC[C@H]1NC1CCN(C(=O)c2nc(C(F)(F)F)nc(N3CCc4ccc(C(F)(F)F)cc4C3)c2C)CC1 [Example 1]
4 | 2 | 150 | CO[C@@H]1COCC[C@@H]1NC1CCN(C(=O)c2nc(C(F)(F)F)nc(N3CCc4ccc(C(F)(F)F)cc4C3)c2C)CC1 [Example 2]
5 | 4 | 700 | CO[C@H]1COCC[C@H]1NC1CCN(C(=O)c2nc(C3CCOCC3)nc(N3CCc4cc(C(F)(F)F)ccc4C3)c2C)CC1 [Example 3]
6 | 2 | 310 | CO[C@@H]1COCC[C@@H]1NC1CCN(C(=O)c2nc(C3CCOCC3)nc(N3CCc4cc(C(F)(F)F)ccc4C3)c2C)CC1 [Example 4]
7 | 14 | 4580 | Cc1c(C(=O)N2CCC(N[C@H]3CCOC[C@H]3F)CC2)nc(C2CCOCC2)nc1N1CCc2cc(C(F)(F)F)ccc2C1 [Example 5]
8 | 20 | 17300 | Cc1cc(-c2nc(C(=O)N3CCC(N[C@@H]4CCOC[C@@H]4F)CC3)c(C)c(N3CCc4cc(C(F)(F)F)ccc4C3)n2)no1 [Example 6]
9 | 8 | 380 | CO[C@@H]1COCC[C@@H]1NC1CCN(C(=O)c2nc(-c3cc(C)on3)nc(N3CCc4cc(C(F)(F)F)ccc4C3)c2C)CC1 [Example 7]
10 | 11 | 5870 | Cc1c(C(=O)N2CCC(N[C@@H]3CCOC[C@@H]3F)CC2)nc(C2CCOCC2)nc1N1CCc2cc(C(F)(F)F)ccc2C1 [Example 8]
11 | 38 | 3400 | Cc1cc(-c2nc(C(=O)N3CCC(N[C@H]4CCOC[C@H]4F)CC3)c(C)c(N3CCc4cc(C(F)(F)F)ccc4C3)n2)no1 [Example 9]
12 | 15 | 850 | CO[C@H]1COCC[C@H]1NC1CCN(C(=O)c2nc(-c3cc(C)on3)nc(N3CCc4cc(C(F)(F)F)ccc4C3)c2C)CC1 [Example 10]
13 | 0.8 | 430 | CO[C@H]1COCC[C@H]1NC1CCN(C(=O)c2nc(C3CCOCC3)nc(N3CCc4ccc(C(F)(F)F)cc4C3)c2C)CC1 [Example 11]
14 | 0.6 | 46 | CO[C@@H]1COCC[C@@H]1NC1CCN(C(=O)c2nc(C3CCOCC3)nc(N3CCc4ccc(C(F)(F)F)cc4C3)c2C)CC1 [Example 12]
15 | 5 | 1300 | Cc1c(C(=O)N2CCC(N[C@H]3CCOC[C@H]3F)CC2)nc(C2CCOCC2)nc1N1CCc2ccc(C(F)(F)F)cc2C1 [Example 13]
16 | 0.7 | – | CO[C@@H]1COCC[C@@H]1NC1CCN(C(=O)c2nc(-c3cc(C)on3)nc(NC[C@H]3CCC[C@@H](c4ccc(C(F)(F)F)cc4)O3)c2C)CC1 [Example 22]
17 | 1 | – | Cc1cc(-c2nc(NC[C@H]3CCC[C@@H](c4ccc(C(F)(F)F)cc4)O3)c(C)c(C(=O)N3CCC(N[C@H]4CCOC[C@H]4F)CC3)n2)no1 [Example 23]
18 | 1 | – | CO[C@H]1COCC[C@H]1NC1CCN(C(=O)c2nc(-c3cc(C)on3)nc(NC[C@H]3CCC[C@@H](c4ccc(C(F)(F)F)cc4)O3)c2C)CC1 [Example 25]
19 | 3 | – | CO[C@@H]1COCC[C@@H]1NC1CCN(C(=O)c2cc(NC[C@H]3CCC[C@@H](c4ccc(C)cc4)O3)nc(CF)n2)CC1 [Example 30]
20 | 15 | – | Cc1ccc([C@@H]2CCC[C@H](CNc3cc(C(=O)N4CCC(NC5CCOCC5F)CC4)nc(CF)n3)O2)cc1 (some centres unmarked) [Example 31]
21 | 5 | – | CO[C@H]1COCC[C@H]1NC1CCN(C(=O)c2cc(NC[C@H]3CCC[C@@H](c4ccc(C)cc4)O3)nc(CF)n2)CC1 [Example 32]
22 | 7 | – | Cc1c(C(=O)N2CCC(NC3CCOCC3)CC2)nc(C(F)(F)F)nc1N1CCc2ccc(C(F)(F)F)cc2C1 [Example 33]
23 | 2 | – | Cc1c(Nc2ccc(Cl)c(Cl)c2)nc(CF)nc1C(=O)N1CCC(N2CCC(N(C)S(C)(=O)=O)CC2)CC1 [Example 36]
24 | 37 | – | Cc1c(Nc2ccc(Cl)c(Cl)c2)nc(CF)nc1C(=O)N1CCC(N2CCOCC2)CC1 [Example 38]
25 | 4 | – | CO[C@@H]1COCC[C@@H]1NC1CCN(C(=O)c2cc(NC[C@H]3CCC[C@@H](c4ccc(SC)cc4)O3)nc(CF)n2)CC1 [Example 39]
26 | 2 | – | CO[C@H]1COCC[C@H]1NC1CCN(C(=O)c2cc(NC[C@H]3CCC[C@@H](c4ccc(SC)cc4)O3)nc(CF)n2)CC1 [Example 41]
27 | 17 | – | CC(=O)N1CCC(c2nc(Nc3ccc(Cl)c(Cl)c3)c(C)c(C(=O)N3CCC(N[C@@H]4CCOC[C@@H]4F)CC3)n2)CC1 [Example 42]
28 | 19 | – | CC(=O)N1CCC(c2nc(Nc3ccc(Cl)c(Cl)c3)c(C)c(C(=O)N3CCC(N[C@H]4CCOC[C@H]4F)CC3)n2)CC1 [Example 43]
29 | 4 | – | CO[C@@H]1COCC[C@@H]1NC1CCN(C(=O)c2nc(C3CCN(C(C)=O)CC3)nc(Nc3ccc(Cl)c(Cl)c3)c2C)CC1 [Example 44]
